What was measured:
Type in all cases: physicochemical
[1] = Hygroscopicity (weight gain at relative humidity); settings: for Hygroscopicity (general statement): description, no conditions stated; for Hygroscopicity (by weight): at 90% relative humidity
[2] = Hygroscopicity in relative humidity chambers; settings: after 16 hours
Protocol: The material was evaluated for hygroscopicity in relative humidity chambers.

[3] = Chemical stability (general statement); settings: description, no conditions stated

For `CC1(C)C2CCC1(CS(=O)(=O)O)C(=O)C2.COCC(=O)NC/C=C/c1ccc2ncnc(Nc3ccc(Oc4ccc(C)nc4)c(C)c3)c2c1` [racemic camsylate, racemic E-2-Methoxy-N-(3-{4-[3-methyl-4-(6-methyl-pyridin-3-yloxy)-phenylamino]-quinazolin-6-yl}-allyl)-acetamide camsylate], the “Hygroscopicity (in words)” value ([1]; camsylate samples, conditions not stated) was “hygroscopic to the point of deliquescence”.

In the case of `COCC(=O)NC/C=C/c1ccc2ncnc(Nc3ccc(Oc4ccc(C)nc4)c(C)c3)c2c1.O=S(=O)(O)c1ccccc1` [monobesylate, E-2-Methoxy-N-(3-{4-[3-methyl-4-(6-methyl-pyridin-3-yloxy)-phenylamino]-quinazolin-6-yl}-allyl)-acetamide monobesylate], the Water sorption ([2]; 75% RH chamber) is reported as “no significant water sorption”, the Weight increase ([2]; 94% RH chamber) is reported as 6.7% and the Deliquescence ([2]; 100% relative humidity chamber) is reported as “deliquescence was observed”.

In the case of `COCC(=O)NC/C=C/c1ccc2ncnc(Nc3ccc(Oc4ccc(C)nc4)c(C)c3)c2c1.O=P(O)(O)O` [monophosphate, E-2-Methoxy-N-(3{4-[3-methyl-4-(6-methyl-pyridin-3-yloxy)-phenylamino]-quinazolin-6-yl}-allyl)-acetamide Monophosphate], the Chemical stability [3] is reported as “chemically stable” and the “Hygroscopicity (general statement)” value [1] is reported as “non-hygroscopic”.

For `CCS(=O)(=O)O.CCS(=O)(=O)O.COCC(=O)NC/C=C/c1ccc2ncnc(Nc3ccc(Oc4ccc(C)nc4)c(C)c3)c2c1` [diesylate complex, E-2-Methoxy-N-(3-{4-[3-methyl-4-(6-methyl-pyridin-3-yloxy)-phenylamino]-quinazolin-6-yl}-allyl)-acetamide diesylate], the “Hygroscopicity (by weight)” value [1] was 45%.

For `COCC(=O)NC/C=C/c1ccc2ncnc(Nc3ccc(Oc4ccc(C)nc4)c(C)c3)c2c1.O=[N+]([O-])O.O=[N+]([O-])O` [dinitrate, E-2-Methoxy-N-(3-{4-[3-methyl-4-(6-methyl-pyridin-3-yloxy)-phenylamino]-quinazolin-6-yl}-allyl)-acetamide dinitrate], the “Hygroscopicity (by weight)” value [1] was ~7%.

With `COCC(=O)NC/C=C/c1ccc2ncnc(Nc3ccc(Oc4ccc(C)nc4)c(C)c3)c2c1.O=C(O)/C=C\C(=O)O.O=C(O)/C=C\C(=O)O` [dimaleate, E-2-Methoxy-N-(3-{4-[3-methyl-4-(6-methyl-pyridin-3-yloxy)-phenylamino]-quinazolin-6-yl}-allyl)-acetamide Dimaleate] the Chemical stability [3] was “chemically stable”, the “Hygroscopicity (by weight)” value [1] was 0.6% and the “Hygroscopicity (general statement)” value [1] was “non-hygroscopic”.

In the case of `COCC(=O)NC/C=C/c1ccc2ncnc(Nc3ccc(Oc4ccc(C)nc4)c(C)c3)c2c1.Cl` [monohydrochloride, E-2-Methoxy-N-(3{4-[3-methyl-4-(6-methyl-pyridin-3-yloxy)-phenylamino]-quinazolin-6-yl}-allyl)-acetamide Monohydrochloride], the Chemical stability [3] is reported as “chemically stable” and the “Hygroscopicity (general statement)” value [1] is reported as “non-hygroscopic”.
